Our source for the IC50 values is patent US9206128B2 (Constellation Pharmaceuticals, Inc., priority 2011, dated 2015).

The structures appear in SMILES notation.

One assay concerns the target EZH2 (Homo sapiens, UniProt Q15910). Put plainly: EZH2 activity inhibition assay (rPRC2, 3H SAM, biotinylated oligonucleosomes, FlashPlate). The class given is biochemical. Particulars: rPRC2, 2 nM EZH2, 0.2 μM 3H SAM, top concentration 80 μM. As for the experimental part:
(§1) EZH2 Assay: Assays were carried out by mixing rPRC2 together with biotinylated oligonucleosome substrates in the presence of the radio-labeled enzyme co-factor, S-adenosyl-L-methionine (^3H SAM) (Perkin Elmer) and monitoring the enzymatically mediated transfer of tritiated methyl groups from ^3H SAM to histone lysine residues. The amount of resulting tritiated methyl histone product was measured by first capturing the biotinylated oligonucleosomes in streptavidin (SAV) coated FlashPlates (Perkin Elmer), followed by a wash step to remove un-reacted ^3H SAM, and then counting on a TopCount NXT 384 well plate scintillation counter (Perkin Elmer).
A 12.5 μL volume of the HMT enzyme, H3K27me3 peptide and oligonucleosome substrate in assay buffer was added to each well of the assay plate using a Multidrop Combi (ThermoFisher). Compounds were pre-incubated with the enzyme for 20 min, followed by initiation of the methyltransferase reaction by addition of 12.5 μL of 3H SAM in assay buffer (final volume=25 μL). […] Stopped reactions were transferred to SAV coated Flashplates (Perkin Elmer), incubated for 120 min, washed with a plate washer, and then read on the TopCount NXT (1.0 min/well) to measure the amount of methyl histone product formed during the reaction.

For a further assay, the target named is Y641N EZH2 (Homo sapiens, UniProt Q15910, Y641N). Nature of the assay: Y641N EZH2 activity inhibition assay (as EZH2 assay, reconstituted H3K27Me2 oligonucleosomes as substrate). The format is biochemical. The following applies: Y641N EZH2 mutant enzyme. As for the experimental part:
as §1, with “Elmer). The final assay conditions for EZH2 were as follows: 50 mM Tris Buffer pH 8.5, 1 mM DTT, 69 μM Brij-35 detergent, 5.0 mM MgCl2, 0.1 mg/mL BSA, 0.2 μM ^3H SAM, 0.2 μM biotinylated oligonucleosomes, 3.6 μM H3K27me3 peptide and 2 nM EZH2.” for “Elmer).”
A 12.5 μL volume of the HMT enzyme, H3K27me3 peptide and oligonucleosome substrate in assay buffer was added to each well of the assay plate using a Multidrop Combi (ThermoFisher). Compounds were pre-incubated with the enzyme for 20 min, followed by initiation of the methyltransferase reaction by addition of 12.5 μL of 3H SAM in assay buffer (final volume=25 μL). The final concentrations of compounds ranged from a top default concentration of 80 μM down to 0.16 μM in ten 2-fold dilution steps. Reactions were carried out for 60 minutes and quenched with 20 μL per well of 1.96 mM SAH, 50 mM Tris PH 8.5, 200 mM EDTA. Stopped reactions were transferred to SAV coated Flashplates (Perkin Elmer), incubated for 120 min, washed with a plate washer, and then read on the TopCount NXT (1.0 min/well) to measure the amount of methyl histone product formed during the reaction.

EZH2, sequence (Q15910 whole entry): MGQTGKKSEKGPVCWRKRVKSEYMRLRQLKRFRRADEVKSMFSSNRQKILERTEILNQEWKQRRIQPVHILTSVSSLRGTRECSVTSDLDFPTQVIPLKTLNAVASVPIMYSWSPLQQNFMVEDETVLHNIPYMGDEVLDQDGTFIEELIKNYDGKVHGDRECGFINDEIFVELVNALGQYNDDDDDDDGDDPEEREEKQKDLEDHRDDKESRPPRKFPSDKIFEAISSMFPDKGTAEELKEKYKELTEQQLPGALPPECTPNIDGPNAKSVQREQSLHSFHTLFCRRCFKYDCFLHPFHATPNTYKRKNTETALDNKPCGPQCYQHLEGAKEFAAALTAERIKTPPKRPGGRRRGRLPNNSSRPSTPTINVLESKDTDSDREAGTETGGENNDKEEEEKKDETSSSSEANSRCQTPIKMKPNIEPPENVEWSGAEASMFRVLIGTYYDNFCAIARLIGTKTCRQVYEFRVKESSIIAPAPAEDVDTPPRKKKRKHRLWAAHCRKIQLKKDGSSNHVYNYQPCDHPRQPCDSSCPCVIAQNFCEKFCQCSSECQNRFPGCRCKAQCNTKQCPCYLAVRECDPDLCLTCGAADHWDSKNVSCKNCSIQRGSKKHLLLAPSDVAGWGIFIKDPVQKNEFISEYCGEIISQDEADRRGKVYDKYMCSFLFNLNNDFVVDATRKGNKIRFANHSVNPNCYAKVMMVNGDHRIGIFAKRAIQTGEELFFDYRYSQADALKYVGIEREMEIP
EZH2, sequence (O75530 whole entry partner): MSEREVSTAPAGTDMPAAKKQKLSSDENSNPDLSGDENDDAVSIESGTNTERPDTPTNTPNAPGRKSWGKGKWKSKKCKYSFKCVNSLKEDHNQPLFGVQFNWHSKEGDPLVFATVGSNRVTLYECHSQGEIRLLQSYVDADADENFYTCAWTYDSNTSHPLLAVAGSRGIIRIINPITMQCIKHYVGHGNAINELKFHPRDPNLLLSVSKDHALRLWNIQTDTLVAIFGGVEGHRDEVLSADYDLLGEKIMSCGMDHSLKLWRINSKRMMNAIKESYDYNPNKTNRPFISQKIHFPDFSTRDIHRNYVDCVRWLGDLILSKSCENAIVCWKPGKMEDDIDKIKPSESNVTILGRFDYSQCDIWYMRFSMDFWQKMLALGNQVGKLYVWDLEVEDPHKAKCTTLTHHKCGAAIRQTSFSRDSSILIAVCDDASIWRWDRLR
EZH2, sequence (Q15022 whole entry partner): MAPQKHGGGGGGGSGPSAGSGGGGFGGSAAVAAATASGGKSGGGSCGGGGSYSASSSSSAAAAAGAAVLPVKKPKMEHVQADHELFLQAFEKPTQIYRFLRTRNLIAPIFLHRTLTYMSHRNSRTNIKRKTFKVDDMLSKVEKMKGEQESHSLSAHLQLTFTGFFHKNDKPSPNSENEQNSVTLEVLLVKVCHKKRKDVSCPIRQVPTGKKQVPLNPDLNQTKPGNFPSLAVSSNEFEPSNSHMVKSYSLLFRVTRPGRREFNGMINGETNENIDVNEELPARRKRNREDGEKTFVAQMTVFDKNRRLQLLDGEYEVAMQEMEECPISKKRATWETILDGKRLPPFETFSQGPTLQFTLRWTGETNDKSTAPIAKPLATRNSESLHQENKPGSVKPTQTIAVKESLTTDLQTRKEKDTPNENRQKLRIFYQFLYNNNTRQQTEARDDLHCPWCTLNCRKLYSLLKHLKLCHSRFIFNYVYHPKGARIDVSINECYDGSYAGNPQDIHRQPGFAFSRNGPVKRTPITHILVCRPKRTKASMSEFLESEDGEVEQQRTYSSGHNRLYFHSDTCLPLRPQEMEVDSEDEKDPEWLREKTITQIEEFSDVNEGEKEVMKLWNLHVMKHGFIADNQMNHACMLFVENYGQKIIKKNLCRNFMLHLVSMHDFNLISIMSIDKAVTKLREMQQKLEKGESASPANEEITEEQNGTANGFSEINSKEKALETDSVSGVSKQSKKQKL
Y641N EZH2, sequence (Q15910 whole entry Y641N): as the sequence (Q15910 whole entry) above, with Y641N counted along it
Y641N EZH2, sequence (O75530 whole entry partner): as the sequence (O75530 whole entry partner) above
Y641N EZH2, sequence (Q15022 whole entry partner): as the sequence (Q15022 whole entry partner) above

As to `Cc1cc(C)c(CNC(=O)c2ccc(C(C)Oc3ccccc3)nc2)c(=O)[nH]1` (centres unmarked) [Compound I-64, N-((2-hydroxy-4,6-dimethylpyridin-3-yl)methyl)-6-(1-phenoxyethyl)nicotinamide], the concentration for half-maximal inhibition (IC50) – broadly, the concentration at which inhibition is half-maximal – against EZH2 is 1 to 10 µM; against Y641N EZH2, over 80 µM.
In the same order, the values of `Cc1cc(C(F)(F)F)c(CNC(=O)c2ccc(Oc3ccccc3)cc2)c(=O)[nH]1` [Compound I-65, N-((2-hydroxy-6-methyl-4-(trifluoromethyl)pyridin-3-yl)methyl)-4-phenoxybenzamide] are 10 to 50 µM and over 80 µM.
For `Cc1cc(C)c(CNC(=O)c2ccc(C(C)Oc3ccccc3)cc2Cl)c(=O)[nH]1` (centres unmarked) [Compound I-66, 2-chloro-N-((2-hydroxy-4,6-dimethylpyridin-3-yl)methyl)-4-(1-phenoxyethyl)benzamide], the IC50 against EZH2 and against Y641N EZH2 was under 1 µM each time.
Consider `Cc1cc(C)c(CNC(=O)c2ccc([C@H](C)Oc3cccc(-c4ccc(N)nc4)c3)cc2)c(=O)[nH]1` [Compound I-69], for which the concentration for half-maximal inhibition (IC50) against EZH2 and on Y641N EZH2 was under 1 µM each time.
Turning to `Cc1cc(C)c(CNC(=O)c2ccc(C(C)Oc3ncccn3)cc2)c(=O)[nH]1` (centres unmarked) [Compound I-76, N-((2-hydroxy-4,6-dimethylpyridin-3-yl)methyl)-4-(1-(pyrimidin-2-yloxy)ethyl)benzamide], the IC50 was 10 to 50 µM on EZH2 and over 80 µM at Y641N EZH2.
In the same order, the values of `Cc1cc(C)c(CNC(=O)c2ccc(C(C)Oc3cccnc3)nc2)c(=O)[nH]1` (centres unmarked) [Compound I-78, N-((2-hydroxy-4,6-dimethylpyridin-3-yl)methyl)-6-(1-(pyridin-3-yloxy)ethyl)nicotinamide] are 1 to 10 µM and over 80 µM.
In the same order, the values of `Cc1cc(C)c(CNC(=O)c2cnc(Oc3ccccc3)nc2)c(=O)[nH]1` [Compound I-79, N-((2-hydroxy-4,6-dimethylpyridin-3-yl)methyl)-2-phenoxypyrimidine-5-carboxamide] are 10 to 50 µM and over 80 µM.
In the same order, the values of `Cc1cc(C)c(CNC(=O)c2ccc(CN3CCCCC3)cc2C)c(=O)[nH]1` [Compound I-80, N-((2-hydroxy-4,6-dimethylpyridin-3-yl)methyl)-2-methyl-4-(piperidin-1-ylmethyl)benzamide] are 1 to 10 µM and 10 to 50 µM.
For the compound `Cc1cc(C)c(CNC(=O)c2ccc(C(C)N3CCCCC3)cc2)c(=O)[nH]1` (centres unmarked) [Compound I-81], the 50% inhibitory concentration (IC50) lay within 1 to 10 µM on EZH2 and 10 to 50 µM against Y641N EZH2.
For `Cc1cc(C)c(CNC(=O)c2ccc(C3CCOC3)cc2)c(=O)[nH]1` (centres unmarked) [Compound I-83, N-((2-hydroxy-4,6-dimethylpyridin-3-yl)methyl)-4-(tetrahydrofuran-3-yl)benzamide], in that order: under 1 µM and 1 to 10 µM.
In the same order, the values of `Cc1cc(C)c(CNC(=O)c2ccc(C3CCCO3)cc2)c(=O)[nH]1` (centres unmarked) [Compound I-84, N-((2-hydroxy-4,6-dimethylpyridin-3-yl)methyl)-4-(tetrahydrofuran-2-yl)benzamide] are 1 to 10 µM and 10 to 50 µM.
For `Cc1cc(C)c(CNC(=O)c2ccc(C(C)OC3CCCCC3)cc2)c(=O)[nH]1` (centres unmarked) [Compound I-85, 4-(1-(cyclohexyloxy)ethyl)-N-((2-hydroxy-4,6-dimethylpyridin-3-yl)methyl)benzamide], in that order: under 1 µM and 1 to 10 µM.
`Cc1cc(C)c(CNC(=O)c2ccc(C3CCCC3)cc2)c(=O)[nH]1` [Compound I-86, 4-cyclopentyl-N-((2-hydroxy-4,6-dimethylpyridin-3-yl)methyl)benzamide]: the half-inhibitory concentration (IC50) on EZH2 is under 1 µM; at Y641N EZH2 it was 1 to 10 µM.
For `Cc1cc(C)c(CNC(=O)c2ccc(C(C)N3CCCCC3)cc2C)c(=O)[nH]1` (centres unmarked) [Compound I-87, N-((2-hydroxy-4,6-dimethylpyridin-3-yl)methyl)-2-methyl-4-(1-(piperidin-1-yl)ethyl)benzamide], in that order: 1 to 10 µM and 1 to 10 µM.
In the same order, the values of `Cc1cc(C)c(CNC(=O)c2ccc(C(C)N3CCCCC3=O)cc2)c(=O)[nH]1` (centres unmarked) [Compound I-88, N-((2-hydroxy-4,6-dimethylpyridin-3-yl)methyl)-4-(1-(2-oxopiperidin-1-yl)ethyl)benzamide] are 1 to 10 µM and over 80 µM.
For `Cc1cc(C)c(CNC(=O)c2ccc(CN3CCN(CCO)CC3)cc2)c(=O)[nH]1` [Compound I-89, N-((4,6-dimethyl-2-oxo-1,2-dihydropyridin-3-yl)methyl)-4-((4-(2-hydroxyethyl)piperazin-1-yl)methyl)benzamide], in that order: 1 to 10 µM and over 80 µM.
For `Cc1cc(C)c(CNC(=O)c2ccc(C(C)COc3ccccc3)cc2)c(O)n1` (centres unmarked) [Compound I-116, N-((2-hydroxy-4,6-dimethylpyridin-3-yl)methyl)-4-(1-phenoxypropan-2-yl)benzamide], the IC50 on EZH2 is under 1 µM; at Y641N EZH2 it was over 80 µM.
For `Cc1cc(C)c(CNC(=O)c2ccc(C(C)Oc3ccncn3)cc2)c(=O)[nH]1` (centres unmarked) [Compound I-155, N-((2-hydroxy-4,6-dimethylpyridin-3-yl)methyl)-4-(1-(pyrimidin-4-yloxy)ethyl)benzamide], in that order: under 1 µM and 1 to 10 µM.
Take `Cc1c[nH]c(=O)c(CNC(=O)c2ccc(C(C)Oc3ccccc3)cc2)c1` (centres unmarked) [Compound I-156]: the IC50 on EZH2 and at Y641N EZH2 was over 80 µM throughout.
Take `Cc1cc(CNC(=O)c2ccc(C(C)Oc3ccccc3)cc2)c(=O)[nH]c1C` (centres unmarked) [Compound I-157]: the concentration for half-maximal inhibition (IC50) on EZH2 and at Y641N EZH2 was over 80 µM throughout.
As to `Cc1cc(C)c(CNC(=O)c2ccc(Oc3ccccc3)nn2)c(=O)[nH]1` [Compound I-158], the concentration for half-maximal inhibition (IC50) on EZH2 and against Y641N EZH2 was over 80 µM in each case.
As for `Cc1cc(C)c(CNC(=O)c2ncc(Oc3ccccc3)cn2)c(=O)[nH]1` [Compound I-159], the 50% inhibitory concentration (IC50) at EZH2 and against Y641N EZH2 was over 80 µM in each case.
Take `Cc1cc(C)c(CNC(=O)c2ccc([C@@H](C)Oc3ccccc3C#N)cc2)c(=O)[nH]1` [Compound I-162]: the figures for the IC50 against EZH2 and at Y641N EZH2 were 1 to 10 µM and over 80 µM, respectively.
In the same order, the values of `Cc1cc(C)c(CNC(=O)c2ccc([C@H](C)Oc3ccccc3C#N)cc2)c(=O)[nH]1` [Compound I-163] are under 1 µM and under 1 µM.
For `Cc1cc(C)c(CNC(=O)c2ccc([C@@H](C)Oc3cccc(C#N)c3)cc2)c(=O)[nH]1` [Compound I-168], in that order: 1 to 10 µM and over 80 µM.
For `Cc1cc(C)c(CNC(=O)c2ccc([C@H](C)Oc3cccc(C#N)c3)cc2)c(=O)[nH]1` [Compound I-169], the IC50 against EZH2 and against Y641N EZH2 was under 1 µM in each case.
`O=C(NCc1ccc(-c2ccccc2)[nH]c1=O)c1ccc(Oc2ccccc2)cc1` [Compound I-170]: the IC50 on EZH2 and against Y641N EZH2 was over 80 µM each time.
As for `O=C(NCc1cc2c([nH]c1=O)CCC2)c1ccc(Oc2ccccc2)cc1` [Compound I-178, N-((2-oxo-2,5,6,7-tetrahydro-1H-cyclopenta[b]pyridin-3-yl)methyl)-4-phenoxybenzamide], the IC50 against EZH2 and against Y641N EZH2 was 10 to 50 µM each time.
Turning to `O=C(NCc1cc2c([nH]c1=O)CCCC2)c1ccc(Oc2ccccc2)cc1` [Compound I-179], the values for the IC50 against EZH2 and against Y641N EZH2 were over 50 µM and over 80 µM, respectively.
For the compound `Cc1cc(C)c(CNC(=O)c2ccc(C(C)Oc3ccccc3)nn2)c(=O)[nH]1` (centres unmarked) [Compound I-182, N-((2-hydroxy-4,6-dimethylpyridin-3-yl)methyl)-6-(1-phenoxyethyl)pyridazine-3-carboxamide], the IC50 on EZH2 is 1 to 10 µM; at Y641N EZH2 it was over 80 µM.
In the same order, the values of `Cc1cc(C)c(CNC(=O)c2ccc(C(CO)Oc3ccccc3)cc2)c(=O)[nH]1` (centres unmarked) [Compound I-183, 4-(2-hydroxy-1-phenoxyethyl)-N-((2-hydroxy-4,6-dimethylpyridin-3-yl)methyl)benzamide] are 1 to 10 µM and over 80 µM.
